Laboratory results published in publication PMC10897476, “Pyridylpiperazine efflux pump inhibitor boosts in vivo antibiotic efficacy against K. pneumoniae” (EMBO Molecular Medicine, 2023).
Values joined by “and” are separate entries in the source; they are usually repeats but may differ in a detail not shown here. Equal values may be shown once. Where a SMILES comes first, the peptide text is derived from it.

Columns and labels:
Format in all cases: cell-based, Klebsiella pneumoniae
K. pneumoniae AcrB^V448E [1] = assay: MIC of antibiotics with and without EPI (REMA), AcrB V448E mutant; settings: K. pneumoniae-AcrB^V448E, Table 2
Summary of the method: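 K. pneumoniae ATCC 43816 carrying single chromosomal acrB or ramR mutations introduced by allelic exchange, diluted to OD600 = 0.001 in CAMHB with EPI at final 100 µM. Incubated 37 °C up to 20 h; viability by resazurin fluorescence (Ex 530/Em 590 nm).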

[2] = system: K. pneumoniae ATCC 43816 (WT); assay: Checkerboard assay levofloxacin x EPI, WT strain; settings: for checkerboard growth readout: ATCC43816 WT, levofloxacin 0 ng/mL; for percentage resazurin turnover: individual replicates, listed as PABN; for Median REMA values (percentage resazurin turnover): median n=3
Protocol: (§1) MIC experiments were carried out according to the CLSI guidelines (CLSI [2023]). Overnight cultures were diluted to an OD600 = 0.001 in CAMHB followed by addition of efflux pump inhibitors (EPIs) at a final concentration of 100 µM. […] Plates were incubated at 37 °C for up to 20 h. Bacterial viability was evaluated using the resazurin microtitre assay (REMA) and measured by fluorescence using a Tecan Spaert multimode plate reader (Ex: 530 nm Em: 590 nm). MICs were defined as the concentration that prevented 90% of resazurin turnover compared to the non-treated bacteria.
(§2) Bacterial suspensions, incubation and plate readouts were carried out as described above.

[3] = system: K. pneumoniae AcrB^V448E RamR^mut; assay: Checkerboard assay levofloxacin x EPI, double mutant; settings: ATCC43816 AcrBV448E ramRmut, levofloxacin 0 ng/mL
Protocol: as §1, §2

[4] = system: K. pneumoniae RamR^mut (K124*stop); assay: Checkerboard assay levofloxacin x EPI, RamR mutant; settings: for checkerboard growth readout: ATCC43816 ramRmut, levofloxacin 0 ng/mL
Protocol: as §1, §2

K. pneumoniae AcrB^V448E [5] = assay: Checkerboard assay levofloxacin x EPI, AcrB V448E mutant; settings: for checkerboard growth readout: ATCC43816 AcrBV448E, levofloxacin 0 ng/mL; for Median REMA values / percentage resazurin turnover: Lev 0.00 ng/mL
Protocol: as §1, §2

## NC(N)=NCCC[C@H](NC(=O)[C@@H](N)Cc1ccccc1)C(=O)Nc1ccc2ccccc2c1 [PAβN] (HELM PEPTIDE1{F.R.[c1ccc2cc(N[*:1])ccc2c1]}$$$$V2.0)
K. pneumoniae AcrB^V448E [1]
  susceptibility of the strain to antibiotic boosting by the EPI, in words: remained sensitive
[2]; EPI 2.3 µM
  checkerboard growth readout: 75
[2]; EPI 4.7 µM
  checkerboard growth readout: 87
[2]; EPI 9.4 µM
  checkerboard growth readout: 110
[2]; EPI 19 µM
  checkerboard growth readout: 116
[2]; EPI 38 µM
  checkerboard growth readout: 154
[2]; EPI 75 µM
  checkerboard growth readout: 143
[2]; EPI 150 µM
  checkerboard growth readout: 129
[2]; EPI 300 µM
  checkerboard growth readout: 135
[2]; Lev 0.00 ng/mL + EPI 2.34 uM
  percentage resazurin turnover: 100% and 75% and 71%
  Median REMA values (percentage resazurin turnover): 75%
[2]; Lev 0.00 ng/mL + EPI 4.69 uM
  percentage resazurin turnover: 108% and 87% and 69%
  Median REMA values (percentage resazurin turnover): 87%
[2]; Lev 0.00 ng/mL + EPI 9.38 uM
  percentage resazurin turnover: 112% and 110% and 90%
  Median REMA values (percentage resazurin turnover): 110%
[2]; Lev 0.00 ng/mL + EPI 18.75 uM
  percentage resazurin turnover: 116% and 136% and 109%
  Median REMA values (percentage resazurin turnover): 116%
[2]; Lev 0.00 ng/mL + EPI 37.50 uM
  percentage resazurin turnover: 154% and 197% and 115%
  Median REMA values (percentage resazurin turnover): 154%
[2]; Lev 0.00 ng/mL + EPI 75.00 uM
  percentage resazurin turnover: 134% and 143% and 152%
  Median REMA values (percentage resazurin turnover): 143%
[2]; Lev 0.00 ng/mL + EPI 150.00 uM
  percentage resazurin turnover: 129% and 156% and 124%
  Median REMA values (percentage resazurin turnover): 129%
[2]; Lev 0.00 ng/mL + EPI 300 uM
  percentage resazurin turnover: 162% and 135% and 125%
  Median REMA values (percentage resazurin turnover): 135%
[3]; EPI 2.3 µM
  checkerboard growth readout: 79
[3]; EPI 4.7 µM
  checkerboard growth readout: 95
[3]; EPI 9.4 µM
  checkerboard growth readout: 80
[3]; EPI 19 µM
  checkerboard growth readout: 121
[3]; EPI 38 µM
  checkerboard growth readout: 158
[3]; EPI 75 µM
  checkerboard growth readout: 211
[3]; EPI 150 µM
  checkerboard growth readout: 226
[3]; EPI 300 µM
  checkerboard growth readout: 191
[4]; EPI 2.3 µM
  checkerboard growth readout: 83
[4]; EPI 4.7 µM
  checkerboard growth readout: 85
[4]; EPI 9.4 µM
  checkerboard growth readout: 97
[4]; EPI 19 µM
  checkerboard growth readout: 113
[4]; EPI 38 µM
  checkerboard growth readout: 126
[4]; EPI 75 µM
  checkerboard growth readout: 200
[4]; EPI 150 µM
  checkerboard growth readout: 177
[4]; EPI 300 µM
  checkerboard growth readout: 157
[4]; K. pneumoniae RamR^mut
  reversion of RamR-mediated levofloxacin resistance, in words: only be partially reverted
K. pneumoniae AcrB^V448E [5]; EPI 2.3 µM
  checkerboard growth readout: 91
K. pneumoniae AcrB^V448E [5]; EPI 4.7 µM
  checkerboard growth readout: 95
K. pneumoniae AcrB^V448E [5]; EPI 9.4 µM
  checkerboard growth readout: 107
K. pneumoniae AcrB^V448E [5]; EPI 19 µM
  checkerboard growth readout: 112
K. pneumoniae AcrB^V448E [5]; EPI 38 µM
  checkerboard growth readout: 147
K. pneumoniae AcrB^V448E [5]; EPI 75 µM
  checkerboard growth readout: 161
K. pneumoniae AcrB^V448E [5]; EPI 150 µM
  checkerboard growth readout: 143
K. pneumoniae AcrB^V448E [5]; EPI 300 µM
  checkerboard growth readout: 143
K. pneumoniae AcrB^V448E [5]; K. pneumoniae AcrB^V448E
  boosting of levofloxacin activity, in words: maintained
K. pneumoniae AcrB^V448E [5]; PABN 2.34 uM
  Median REMA values: 91%
  percentage resazurin turnover: 108% and 91% and 74%
K. pneumoniae AcrB^V448E [5]; PABN 4.69 uM
  Median REMA values: 95%
  percentage resazurin turnover: 95% and 102% and 74%
K. pneumoniae AcrB^V448E [5]; PABN 9.38 uM
  Median REMA values: 107%
  percentage resazurin turnover: 113% and 107% and 80%
K. pneumoniae AcrB^V448E [5]; PABN 18.75 uM
  Median REMA values: 112%
  percentage resazurin turnover: 120% and 112%
K. pneumoniae AcrB^V448E [5]; PABN 37.50 uM
  Median REMA values: 147%
  percentage resazurin turnover: 147% and 150% and 121%
K. pneumoniae AcrB^V448E [5]; PABN 75.00 uM
  Median REMA values: 161%
  percentage resazurin turnover: 161% and 123% and 162%
K. pneumoniae AcrB^V448E [5]; PABN 150.00 uM
  Median REMA values: 143%
  percentage resazurin turnover: 143% and 146% and 114%
K. pneumoniae AcrB^V448E [5]; PABN 300 uM
  Median REMA values: 143%
  percentage resazurin turnover: 143% and 112%
